US20260327211A1, “MODULATORS OF A POTASSIUM CHANNEL AND OF TRPV1 CHANNEL AND USES THEREOF” (Bsense Bio Therapeutics Ltd., priority 2023, published 2026)
Like-named read-outs stand apart in the source and are kept apart here.

How the values were obtained:
[1] = Metabolite identification (Met-ID), human hepatocytes; assay type: in vitro ADME; conditions: human hepatocytes
Protocol: Cell culture and incubation: Cryopreserved hepatocyte cells, from human and rat sources, were purchased from commercial sources or in-house production, and were cultured in Williams' Medium E supplemented with glutamine and HEPES, in a humidified 5% CO2 incubator at 37° C., to a cell density of […]. Then, solutions of test compounds at a concentration of 10 μM, or 7-Ethoxycoumarin, as a positive control, at a concentration of 30 μM, in Eagle's Minimum Essential Medium, Catalog No. 30-2003 (ATCC) supplemented with 20% fetal bovine serum, were introduced and the mixture was incubated for 120 minutes, or other specified time points.
The samples were analyzed for metabolites using an LC-MS method developed on […] and PDA systems. Comparative analyses of mass spectra and ion fragmentation between the parent compound and its metabolites were carried out, and metabolic profiling was determined using the mass spectrometric and/or PDA (UV) response. Hypothetical structures of metabolites and their metabolic pathways were proposed.

[2] = Human liver microsome metabolic stability; assay type: in vitro ADME; conditions: for HLM T1/2 / half-life at 1 µM: human liver microsomes; for HLM T1/2: 1 µM; for half-life at 1 µM: human, liver microsomes, read-out: HLM T1/2
Description: Liver microsomes which are subcellular particles derived from endoplasmic reticulum of hepatic cells were used for evaluating the tested compounds. These particles are rich in drug metabolizing enzymes, including the cytochrome p-450 family. Liver microsomes are a recommended test system for various in vitro drug metabolism and pharmacokinetics (DMPK) studies. CLint values lower than […] are considered suitable for drug development.
Liver Microsome Metabolic Stability Assay (NADPH): The liver microsome stability assay was evaluated through pre-incubation with HLMs. A liver microsome mixture (pooled from multiple donors) at a concentration of 0.5 mg/mL, and the test compound at a concentration of 1 μM, were warmed in the presence of a NADPH regenerating system (about 1.0 mM) at 37° C. Positive controls, including testosterone (a CYP3A4 substrate), propafenone (a CYP2D6 substrate), and diclofenac (a CYP2C9) substrate, were concurrently incubated with the HLMs, in the presence of the NADPH regenerating system (1.0 mM). Samples were extracted during incubation at multiple intervals: 0, 5, 15, 30, 45 and 60 minutes. To terminate the reactions, the samples were promptly mixed with cooled acetonitrile that included an internal standard (IS). An additional compound was incubated with the HLMs in the absence of the NADPH regeneration system, from which a sample was taken at the 60-minute interval.
The clearance of the test compound in the samples was subsequently analyzed by LC-MS/MS based on the peak area ratios of the analyte to the IS.
The following equation was used to calculate the microsome clearance: […]
Liver weight: 40 grams/kg, 30 grams/kg, 32 grams/kg, 20 grams/kg and 88 grams/kg, for rat, monkey, dog, human and mouse, respectively.

[3] = Log D, 1-octanol/buffer shake flask; assay type: physicochemical; conditions: pH 7.4
Protocol: The Log D assay was a miniaturized 1-octanol/buffer shake flask method followed by LC/MS/MS analysis, as follows.
The test compounds or control compounds Nadolol, Chlorpromazine Hydrochloride and Propranolol Hydrochloride were dissolved in 100% DMSO to obtain 10 mM solutions, which were transferred to 96-well polypropylene cluster tubes; 2 μL/well. 1-octanol saturated with 0.1 M phosphate buffer (149 μL/well) and 0.1 M phosphate buffer saturated with 1-octanol (149 μL/well) were added to the tubes, respectively, and each tube was vigorously mixed for 2 minutes and then shaked at a speed of 800 rpm at room temperature for 1 hour, followed by centrifugation at 4000 rpm for 5 minutes at room temperature. Thereafter, for the test compounds and the Chlorpromazine Hydrochloride and Propranolol Hydrochloride, the sample of the buffer layer was diluted by a factor of 50-fold and the sample of 1-octanol layer was diluted by a factor of 2000-fold with internal standard (IS) solution. For Nadolol, the sample of the buffer layer was diluted by a factor of 1000-fold and the sample of 1-octanol layer was diluted by a factor of 400-fold with internal standard (IS) solution. The samples were analyzed using a triple quadrupole mass spectrometer. Peak areas were corrected by dilution factors and embedded internal standard, and the ratio of the corrected peak areas was used to calculate the Log D value. The Log D value for each compound will be calculated by the following equation: […]

CYP3A4 = assay: CYP inhibition / time-dependent inhibition, CYP3A4_Midazolam; assay type: in vitro ADME, human; conditions: role: inhibitor; substrate midazolam 2.0 μM; CYP TDI ratio
Protocol: The time-dependent inactivation potency of the test compound to CYP enzymatic activities was assessed by the pre-incubation of the human liver microsomes with the test compound in the presence and absence of NADPH, followed by the incubation with the discrete marker substrates, as follows.
Pre-incubation with human liver microsomes (HLMs): The TDI inactivation potency on CYP enzymatic activities was evaluated through pre-incubation with HLMs (Corning). A liver microsome mixture at a concentration of 0.1 mg/mL, and the test compound at 8 different concentrations (0, 0.05, 0.165, 0.5, 1.65, 5.0, 16.5, or 50.0 μM) was warmed at 37° C. for 10 minutes. Concurrently, a set of known time-dependent inactivators was also prepared in duplicate for comparison. Following this, NADPH (1.0 mM) was added to one group (Group 1), and an equal volume of potassium phosphate buffer to the second group (Group 2), marking the beginning of a 30-minute pre-incubation at 37° C.
Incubation: After pre-incubation, the marker substrate, or marker substrate plus NADPH was added to the mixture, thereby initiating the incubation. The duration of the incubation was dependent on the type of CYP isoform being evaluated. For example, with the CYP3A isoform, the mixture was incubated over 3 minutes utilizing midazolam as the marker substrate (2.0 μM), verapamil as the standard inactivator (3.5 μM).
Termination of Reaction: Following the incubation, ice-cooled acetonitrile containing the internal standard (IS) was added to halt the reactions. Metabolites generated from the marker substrates were then measured via LC-MS/MS, assessed based on peak area ratios of the analyte to IS.

Rat pharmacokinetics = assay type: in vivo; conditions: rat, plasma
Protocol: The pharmacokinetic (PK) properties of test compound following single intravenous (IV) bolus and oral gavage (PO) administration in male Sprague-Dawley (SD) rats were determined in this study.
Test compound administration: Six male Sprague Dawley (SD) rats were divided into two designated groups, Group 1 and Group 2, each composed of three rat subjects. Group 1 animals were subjected to a single intravenous bolus administration of the test compound at a dosage of 1 mg/kg. Group 2 animals were administered with the test compound orally in a single dose, at a concentration of 10 mg/kg. Throughout the study, the animals had unhindered access to food. The test compound was administered at a concentration of 0.5 mg/mL and dose volume of 2 mL/kg for Group 1, and at a concentration of 1 mg/mL and dose volume of 10 mL/kg, for Group 2.
Sample extraction and analysis: Plasma samples were systematically collected at varying time points of 0.083 (only for Group 1), 0.25, 0.5, 1, 2, 4-, 6-, 8-, and 24-hours post-dose. LC-MS/MS was used to determine the test compound's concentration within the collected plasma samples. Data reflecting plasma concentration in correlation to time were graphically represented and subjected to a non-compartmental analysis using the Phoenix WinNonlin 6.3 software program. The resulting pharmacokinetic parameters, including Clearance (Cl), Volume of distribution at steady state (Vdss) and initial concentration (C0) for intravenous administration; peak concentration (Cmax), time of peak concentration (Tmax), and bioavailability (% F) for extravascular administration; and half-life (T1/2), Area Under Curve from time zero to time t (AUC(0-t)), Area Under Curve from time zero to infinity (AUC(0-inf)), Mean Residence Time from time zero to time t (MRT(0-t)), Mean Residence Time from time zero to infinity (MRT(0-inf)) for all routes, were systematically calculated.

hTRPV1 = target: T1, hTRPV1 (Homo sapiens, UniProt Q8NER1); assay: hTRPV1 dual activity electrophysiology, CHO cells co-expressing hKv7.2/3 and hTRPV1; assay type: cell-based; conditions: Kv7.2/3 co-expressed and activated, capsaicin; read-out: Dual hTRPV1 / Dual Expressing CHO, CAP IC50
T1 construct: CDS of NM_080704.4, inserted into the multiple cloning site of pcDNA3.1(+); host or cells: CHO/hKv7.2/3
T1 sequence (Q8NER1 whole entry): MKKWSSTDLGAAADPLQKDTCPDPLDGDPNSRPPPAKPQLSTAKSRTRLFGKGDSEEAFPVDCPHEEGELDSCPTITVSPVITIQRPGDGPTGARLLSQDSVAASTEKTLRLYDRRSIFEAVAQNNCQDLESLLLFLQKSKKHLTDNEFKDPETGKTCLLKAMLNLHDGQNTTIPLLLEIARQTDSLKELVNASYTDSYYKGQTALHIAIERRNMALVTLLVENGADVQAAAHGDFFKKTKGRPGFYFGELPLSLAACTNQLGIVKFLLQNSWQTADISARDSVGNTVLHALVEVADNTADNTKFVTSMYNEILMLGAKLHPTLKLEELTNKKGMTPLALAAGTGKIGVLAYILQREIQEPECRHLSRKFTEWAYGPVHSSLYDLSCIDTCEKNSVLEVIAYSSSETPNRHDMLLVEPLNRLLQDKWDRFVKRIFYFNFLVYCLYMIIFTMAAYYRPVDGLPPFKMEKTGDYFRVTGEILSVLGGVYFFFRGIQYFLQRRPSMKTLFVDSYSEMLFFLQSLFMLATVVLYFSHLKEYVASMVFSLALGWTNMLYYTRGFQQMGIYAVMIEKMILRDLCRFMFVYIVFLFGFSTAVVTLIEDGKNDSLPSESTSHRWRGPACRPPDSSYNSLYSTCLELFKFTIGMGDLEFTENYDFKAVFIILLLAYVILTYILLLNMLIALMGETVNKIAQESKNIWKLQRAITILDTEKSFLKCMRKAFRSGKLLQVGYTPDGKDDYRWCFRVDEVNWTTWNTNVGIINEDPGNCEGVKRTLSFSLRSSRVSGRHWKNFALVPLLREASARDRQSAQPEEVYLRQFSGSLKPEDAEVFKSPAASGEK
Protocol: Cell culture and DNA transfection: CHO/hKv7.2/3 cells were transfected with hTRPV1 DNA constructs (CDS of NM_080704.4, inserted into the multiple cloning site of pcDNA3.1(+) between the Hind III and BamH I restriction site, Genscript). For CHO transfection, 1×10^6 cells were suspended in a reaction mix (Amaxa™ 4D-Nucleofector™-LONZA) containing 5 μg of hTRPV1 DNA and 0.5 μg of GFP DNA (for cells selection) in a cuvette.
The cells were transformed (Amaxa, DT-133 program for CHO transfection with p-3 Kit) and recovered for 10 minutes at RT in the hood. Then cells were re-suspended in a 10 mL antibiotic (Ab)-free medium suspension and were plated on Gelatin or PLL-coated cover glass in different cell densities. On the next morning, the medium was changed to full medium containing the CHO/hKv7.2/3 cell line selection antibiotics.
Extracellular (Bath) solution: The solution was composed of (in mM): NaCl, 140; KCl, 4; CaCl2, 1.8; MgCl2, 1.2; Glucose, 11; HEPES, 5.5. pH was adjusted to 7.3 with NaOH. Osmolarity was adjusted to 310 mOsm with Sucrose.
Intracellular (Pipette) solution: Pipettes were pulled from borosilicate glass (Warner Instrument Corp, USA) with a resistance of 3-7 MΩ and were filled with internal solution composed of (in mM): KCl, 130; MgCl2, 1; K ATP, 5; EGTA, 5; HEPES, 10. pH was adjusted to 7.3 with KOH. Osmolarity was adjusted to 290 mOsm with Sucrose.
A programmable valve-linked pressurized perfusion system was used for local application of compounds nearby the cell recorded in a consistent flow rate of 2-3 mL/minute. Series resistance was corrected and data were sampled at 5 kHz and low pass filtered at 2.4 kHz using MultiClamp 700B amplifier with pCLAMP11 software (Molecular Devices, USA).
At least 48 hours following cell transfection and plating, cells were recorded to assess the TRPV1 dual activity. Membrane potential was held at −90 mV. To measure the inhibitory effects of the tested compounds on hTRPV1 dual activity the following protocol was performed:
Cells were perfused with vehicle-only containing bath solution. After 30 seconds, a single −40 mV 1.5 second step was applied for Kv7.2/3 activation and 30 seconds later capsaicin (1 μM) was applied for 6 seconds to activate the TRPV1.
Cells perfusion was changed to a compound-containing bath solution, and after 2 minutes and 30 seconds of compound application, a single −40 mV 1.5 second step was applied for Kv7.2/3 activation and 30 seconds later capsaicin (1 μM) was applied for 6 seconds to activate the TRPV1.
Cells perfusion was thereafter changed back to vehicle only-containing bath solution. After 30 seconds, a single −40 mV 1.5 step was applied for Kv7.2/3 activation and 30 seconds later capsaicin (1 μM) was applied for 6 seconds to activate the TRPV1 followed by a capsaicin wash out.
The drug current response, when capsaicin was injected following 3 minutes of pre-incubation with the test compound, was divided by the averaged control currents, induced without compound, before compound incubation and following its washout, to evaluate the drug/control response.

[4] = 1-octanol/phosphate buffer, read-out: LogD

CYP-TDI (midazolam), (−)NADPH/(+)NADPH Ratio CYP3A4 (CYP3A4)	half-life at 1 µM [2] [min]	clearance (Rat pharmacokinetics; iv, 1 mg/kg, read-out: PK: Cl) [mL/min/kg]	bioavailability (Rat pharmacokinetics; po, 10 mg/kg, read-out: PK: Oral BA) [%]	logD [3, 4]	IC50 (hTRPV1) [µM]	SMILES	Human Hepatocytes MetID (glutathione conjugation) [1]	HLM T1/2 [2] [min]	logD [3]	HLM and/or Rat PK clearance rates compared to compound 661 [2]
1.20	61.9	42.5	79.7	3.3		O=C(Cc1nccc(-n2cc(Cl)c3cc(Cl)cc(Cl)c32)n1)NCCO [Compound 767]	did not indicate the presence of glutathione conjugation and None			improved HLM and/or Rat PK clearance rates compared to compound 661
>1.9	34.8			3.88		O=C(Cc1cncc(-n2cc(C(F)(F)F)c3cc(Cl)cc(Cl)c32)c1)N[C@@H]1COC[C@H]1O [Compound 770]				
2.04	26.7			4.29		O=C(Cc1cncc(-n2cc(C3CC3)c3cc(Cl)cc(Cl)c32)c1)N[C@@H]1COC[C@H]1O [Compound 790]				
>2.67	15.4			> 4.1		CC(C)(C)c1cn(-c2cncc(CC(=O)N[C@@H]3COC[C@H]3O)c2)c2c(Cl)cc(Cl)cc12 [Compound 800]				
					1.07	O=C(Cc1cc(-n2cc(Cl)c3cc(Cl)cc(Cl)c32)ncn1)NCCO [Compound 851]	did not indicate the presence of glutathione conjugation	60.6	3.38	improved HLM and/or Rat PK clearance rates compared to compound 661

SMILES	CYP-TDI (midazolam), (−)NADPH/(+)NADPH Ratio CYP3A4 (CYP3A4)	half-life at 1 µM [2] [min]	clearance (Rat pharmacokinetics; iv, 1 mg/kg, read-out: PK: Cl) [mL/min/kg]	bioavailability (Rat pharmacokinetics; po, 10 mg/kg, read-out: PK: Oral BA) [%]	logD [3, 4]	IC50 (hTRPV1) [µM]	Human Hepatocytes MetID (glutathione conjugation) [1]	HLM T1/2 [2] [min]	logD [3]	HLM and/or Rat PK clearance rates compared to compound 661 [2]
CC1CN(c2cncc(CC(=O)NC3COCC3O)c2)c2c(Cl)cc(Cl)cc21 (mixture of isomers) [Compound 710]	1.22						did not indicate the presence of glutathione conjugation	10.1	2.88	
CC1(C)CN(c2cncc(CC(=O)NC3COCC3O)c2)c2c(Cl)cc(Cl)cc21 (stereo not shown) [Compound 720]	>1.6							6.1	3.24	
O=C(Cc1cncc(N2CC3(CC3)c3cc(Cl)cc(Cl)c32)c1)NC1COCC1O (stereo not shown) [Compound 730]	>1.57							9.9	3.22	
